According to publication PMC5218480 (PLoS ONE, 2017):

Test system: MV-4-11 cells
Assay: Gene expression microarray analysis (Affymetrix PrimeView) and GSEA
Assay type: cell-based, human
Parameters: RFU PODN (11730768_x_at) / Fold change /veh PODN (11730768_x_at) / RFU LINC00158 (11744669_a_at) / Fold change /veh LINC00158 (11744669_a_at) / RFU DUSP10 (11751237_a_at) / Fold change /veh DUSP10 (11751237_a_at) / RFU ID3 (11757404_x_at) / Fold change /veh ID3 (11757404_x_at) / RFU PLEKHG5 (11737974_s_at) / Fold change /veh PLEKHG5 (11737974_s_at) / RFU LRRC4B (11730491_at) / Fold change /veh LRRC4B (11730491_at) / RFU GIMAP4 (11747438_a_at) / Fold change /veh GIMAP4 (11747438_a_at) / RFU KRT8 (11758183_x_at) / Fold change /veh KRT8 (11758183_x_at) / RFU CNN1 (11734310_a_at) / Fold change /veh CNN1 (11734310_a_at) / RFU VPS37D (11726825_at) / Fold change /veh VPS37D (11726825_at) / RFU C10orf10 (11716522_x_at) / Fold change /veh C10orf10 (11716522_x_at) / RFU KIR2DL2 /// KIR2DL4 /// KIR2DL5A /// KIR2DL5B /// KIR2DS1 /// KIR2DS2 /// KIR2DS3 /// KIR2DS4 /// KIR3DL3 /// KIR3DL3 /// KIR3DS1 (11738374_at) / Fold change /veh KIR2DL2 /// KIR2DL4 /// KIR2DL5A /// KIR2DL5B /// KIR2DS1 /// KIR2DS2 /// KIR2DS3 /// KIR2DS4 /// KIR3DL3 /// KIR3DL3 /// KIR3DS1 (11738374_at) / RFU C1QL1 (11718748_at) / Fold change /veh C1QL1 (11718748_at) / RFU TMPRSS4 (11747572_a_at) / Fold change /veh TMPRSS4 (11747572_a_at) / RFU HAMP (11756126_x_at) / Fold change /veh HAMP (11756126_x_at) / RFU RNFT2 (11725882_a_at) / Fold change /veh RNFT2 (11725882_a_at) / RFU NR4A2 (11747474_a_at) / Fold change /veh NR4A2 (11747474_a_at) / RFU ABCC12 (11746883_a_at) / Fold change /veh ABCC12 (11746883_a_at) / RFU TMEM136 (11760407_x_at) / Fold change /veh TMEM136 (11760407_x_at) / RFU CLDN22 /// WWC2 (11732394_at) / Fold change /veh CLDN22 /// WWC2 (11732394_at) / RFU HLA-DPB1 (11760878_x_at) / Fold change /veh HLA-DPB1 (11760878_x_at) / RFU SPINT1 (11716480_a_at) / Fold change /veh SPINT1 (11716480_a_at) / RFU GAP43 (11754022_s_at) / Fold change /veh GAP43 (11754022_s_at) / RFU A4GNT (11735810_at) / Fold change /veh A4GNT (11735810_at) / RFU PRB3 (11715151_x_at) / Fold change /veh PRB3 (11715151_x_at) / RFU TUBB4B (11761932_at) / Fold change /veh TUBB4B (11761932_at) / RFU CAPN14 (11732068_a_at) / Fold change /veh CAPN14 (11732068_a_at) / RFU TMCC2 (11721928_a_at) / Fold change /veh TMCC2 (11721928_a_at) / RFU IRGQ (11745062_a_at) / Fold change /veh IRGQ (11745062_a_at) / RFU FAM174B (11720279_a_at) / Fold change /veh FAM174B (11720279_a_at) / RFU TMPRSS4 (11748680_a_at) / Fold change /veh TMPRSS4 (11748680_a_at) / RFU FAM212B (11763350_a_at) / Fold change /veh FAM212B (11763350_a_at) / RFU PLEKHG5 (11743358_a_at) / Fold change /veh PLEKHG5 (11743358_a_at) / RFU ZSCAN30 (11745921_a_at) / Fold change /veh ZSCAN30 (11745921_a_at) / RFU CMKLR1 (11741424_a_at) / Fold change /veh CMKLR1 (11741424_a_at) / RFU LOC101060620 /// MAPK8IP1 (11723275_at) / Fold change /veh LOC101060620 /// MAPK8IP1 (11723275_at) / RFU SPTSSB (11747773_x_at) / Fold change /veh SPTSSB (11747773_x_at) / RFU PRSS12 (11739890_at) / Fold change /veh PRSS12 (11739890_at) / RFU BIN1 (11741810_x_at) / Fold change /veh BIN1 (11741810_x_at) / RFU WNT11 (11732464_a_at) / Fold change /veh WNT11 (11732464_a_at) / RFU C10orf10 (11716521_a_at) / Fold change /veh C10orf10 (11716521_a_at) / RFU C5orf56 (11738089_at) / Fold change /veh C5orf56 (11738089_at) / RFU CYB561 (11721691_x_at) / Fold change /veh CYB561 (11721691_x_at) / RFU ANKRD19P (11752326_a_at) / Fold change /veh ANKRD19P (11752326_a_at) / RFU OR2T12 /// OR2T33 /// OR2T8 (11738714_s_at) / Fold change /veh OR2T12 /// OR2T33 /// OR2T8 (11738714_s_at) / RFU VCAN (11748164_a_at) / Fold change /veh VCAN (11748164_a_at) / RFU JSRP1 (11732532_at) / Fold change /veh JSRP1 (11732532_at) / RFU KRTAP10-11 (11738290_x_at) / Fold change /veh KRTAP10-11 (11738290_x_at) / RFU MYO3A (11730013_a_at) / Fold change /veh MYO3A (11730013_a_at) / RFU EBF3 (11725865_a_at) / Fold change /veh EBF3 (11725865_a_at) / RFU CAMK2N1 (11719241_x_at) / Fold change /veh CAMK2N1 (11719241_x_at) / RFU C5orf56 (11738088_a_at) / Fold change /veh C5orf56 (11738088_a_at) / RFU OLFML3 (11715873_a_at) / Fold change /veh OLFML3 (11715873_a_at) / RFU LOC100653217 /// NTM (11731650_a_at) / Fold change /veh LOC100653217 /// NTM (11731650_a_at) / RFU MAPK11 (11762145_a_at) / Fold change /veh MAPK11 (11762145_a_at) / RFU FIZ1 (11724087_x_at) / Fold change /veh FIZ1 (11724087_x_at) / RFU OASL (11726364_x_at) / Fold change /veh OASL (11726364_x_at) / RFU SOX15 (11748057_x_at) / Fold change /veh SOX15 (11748057_x_at) / RFU CD79A (11719716_a_at) / Fold change /veh CD79A (11719716_a_at) / RFU HIST1H1D (11736915_at) / Fold change /veh HIST1H1D (11736915_at) / RFU CASKIN2 (11723855_a_at) / Fold change /veh CASKIN2 (11723855_a_at) / RFU LOC730098 (11760151_x_at) / Fold change /veh LOC730098 (11760151_x_at) / RFU OR4N2 (11742367_at) / Fold change /veh OR4N2 (11742367_at) / RFU PRRT2 (11749266_a_at) / Fold change /veh PRRT2 (11749266_a_at) / RFU SNX32 (11753110_a_at) / Fold change /veh SNX32 (11753110_a_at) / RFU CDHR5 (11726645_a_at) / Fold change /veh CDHR5 (11726645_a_at) / RFU RCAN1 (11760418_a_at) / Fold change /veh RCAN1 (11760418_a_at) / RFU FAM167A (11723789_a_at) / Fold change /veh FAM167A (11723789_a_at) / RFU FAM26E (11764081_at) / Fold change /veh FAM26E (11764081_at) / RFU ISYNA1 (11749810_s_at) / Fold change /veh ISYNA1 (11749810_s_at) / RFU ACY1 (11761880_at) / Fold change /veh ACY1 (11761880_at) / RFU 11764098_at / Fold change /veh 11764098_at / RFU SAMD14 (11745864_x_at) / Fold change /veh SAMD14 (11745864_x_at) / RFU NPB (11741838_a_at) / Fold change /veh NPB (11741838_a_at) / RFU TMPRSS6 (11731388_a_at) / Fold change /veh TMPRSS6 (11731388_a_at) / RFU KRTAP10-2 (11738614_at) / Fold change /veh KRTAP10-2 (11738614_at) / RFU ARHGAP8 /// PRR5-ARHGAP8 (11727945_x_at) / Fold change /veh ARHGAP8 /// PRR5-ARHGAP8 (11727945_x_at) / RFU KRTAP5-7 /// NADSYN1 (11734609_at) / Fold change /veh KRTAP5-7 /// NADSYN1 (11734609_at) / RFU RASL12 (11751679_a_at) / Fold change /veh RASL12 (11751679_a_at) / RFU CDKN2B (11736163_a_at) / Fold change /veh CDKN2B (11736163_a_at) / RFU PRF1 (11729649_at) / Fold change /veh PRF1 (11729649_at) / RFU, ZNF638 /// ZNF638-IT1 / Fold change vs veh, ZNF638 /// ZNF638-IT1 / RFU, PANK3 / Fold change vs veh, PANK3 / RFU, SH3YL1 / Fold change vs veh, SH3YL1 / RFU, ZEB2 / Fold change vs veh, ZEB2 / RFU, NRIP1 / Fold change vs veh, NRIP1 / RFU, PTTG1IP / Fold change vs veh, PTTG1IP / RFU, CAPN2 / Fold change vs veh, CAPN2 / RFU, MED14 / Fold change vs veh, MED14 / RFU, SNORA58 / Fold change vs veh, SNORA58 / RFU, C1orf63 / Fold change vs veh, C1orf63 / RFU, LRRFIP1 / Fold change vs veh, LRRFIP1 / RFU, NDUFAF7 / Fold change vs veh, NDUFAF7 / RFU, SLC12A2 / Fold change vs veh, SLC12A2 / RFU, IBTK / Fold change vs veh, IBTK / RFU, ESF1 / Fold change vs veh, ESF1 / Fold change vs veh, TMEM50B / RFU, TAOK1 / Fold change vs veh, TAOK1 / RFU, ACBD3 / Fold change vs veh, ACBD3 / RFU, TMA16 / Fold change vs veh, TMA16 / RFU, RWDD3 / Fold change vs veh, RWDD3 / RFU, BCAT1 / Fold change vs veh, BCAT1 / RFU, EDEM3 / Fold change vs veh, EDEM3 / RFU, TMEM33 / Fold change vs veh, TMEM33 / RFU, WDR75 / Fold change vs veh, WDR75 / RFU, AHCTF1 / Fold change vs veh, AHCTF1 / RFU, TFRC / Fold change vs veh, TFRC / RFU, ZDHHC17 / Fold change vs veh, ZDHHC17 / RFU, NOM1 / Fold change vs veh, NOM1 / RFU, ARL8B / Fold change vs veh, ARL8B / RFU, ZBTB11 / Fold change vs veh, ZBTB11 / RFU, TAMM41 / Fold change vs veh, TAMM41 / RFU, KIAA1704 /// LOC100996395 / Fold change vs veh, KIAA1704 /// LOC100996395 / RFU, ING1 / Fold change vs veh, ING1 / RFU, TRMT61B / Fold change vs veh, TRMT61B / RFU, FUBP3 / Fold change vs veh, FUBP3 / RFU, TP53 / Fold change vs veh, TP53 / RFU, TNKS2 / Fold change vs veh, TNKS2 / RFU, ZFP14 / Fold change vs veh, ZFP14 / RFU, ACTR2 / Fold change vs veh, ACTR2 / RFU, PPP3R1 / Fold change vs veh, PPP3R1 / RFU, PIK3R1 / Fold change vs veh, PIK3R1 / RFU, HNRNPA1 / Fold change vs veh, HNRNPA1 / RFU, RNF170 / Fold change vs veh, RNF170 / RFU, ZNF28 / Fold change vs veh, ZNF28 / RFU, RNGTT / Fold change vs veh, RNGTT / RFU, OGT / Fold change vs veh, OGT / RFU, BRD1 / Fold change vs veh, BRD1 / RFU, MARS / Fold change vs veh, MARS / RFU, ZNF655 / Fold change vs veh, ZNF655 / RFU, FAHD1 / Fold change vs veh, FAHD1 / RFU, BDP1 / Fold change vs veh, BDP1 / RFU, LRRCC1 / Fold change vs veh, LRRCC1 / RFU, ARID1A / Fold change vs veh, ARID1A / RFU, ZNF146 / Fold change vs veh, ZNF146 / RFU, ZNF330 / Fold change vs veh, ZNF330 / RFU, GPN3 / Fold change vs veh, GPN3 / RFU, C9orf123 / Fold change vs veh, C9orf123 / RFU, N4BP2L2 / Fold change vs veh, N4BP2L2 / RFU, ARFIP1 / Fold change vs veh, ARFIP1 / RFU, FAM179B / Fold change vs veh, FAM179B / RFU, BCL10 / Fold change vs veh, BCL10 / RFU, UHRF1BP1L / Fold change vs veh, UHRF1BP1L / RFU, BET1 / Fold change vs veh, BET1 / RFU, CNOT2 / Fold change vs veh, CNOT2 / RFU, ZNF268 / Fold change vs veh, ZNF268 / Fold change vs veh, ZNF507 / RFU, DGCR2 / Fold change vs veh, DGCR2 / RFU, WDSUB1 / Fold change vs veh, WDSUB1 / Fold change vs veh, HSP90B1 /// MIR3652 / RFU, ADSS / Fold change vs veh, ADSS / RFU, GK / Fold change vs veh, GK / RFU, ZNF148 / Fold change vs veh, ZNF148 / RFU, TAF9 / Fold change vs veh, TAF9 / RFU, SLC1A5 / Fold change vs veh, SLC1A5 / RFU, SLMO2 / Fold change vs veh, SLMO2 / RFU, ABCC4 / Fold change vs veh, ABCC4 / RFU, LOC101060439 /// RAP1B / Fold change vs veh, LOC101060439 /// RAP1B / RFU, RFX7 / Fold change vs veh, RFX7 / RFU, GTPBP10 / Fold change vs veh, GTPBP10 / RFU, CNEP1R1 / Fold change vs veh, CNEP1R1 / RFU, BIVM-ERCC5 /// ERCC5 / Fold change vs veh, BIVM-ERCC5 /// ERCC5 / RFU, ILF3 / Fold change vs veh, ILF3 / RFU 11762660_at / Fold change /veh 11762660_at / RFU VCAN (11757783_s_at) / Fold change /veh VCAN (11757783_s_at) / RFU DDX43 (11728927_at) / Fold change /veh DDX43 (11728927_at) / RFU KRT8 (11758188_x_at) / Fold change /veh KRT8 (11758188_x_at) / RFU NKD1 (11759106_at) / Fold change /veh NKD1 (11759106_at) / RFU SRD5A1 (11742802_a_at) / Fold change /veh SRD5A1 (11742802_a_at) / RFU TPSAB1 /// TPSB2 (11721975_s_at) / Fold change /veh TPSAB1 /// TPSB2 (11721975_s_at) / RFU GSTM3 (11746129_a_at) / Fold change /veh GSTM3 (11746129_a_at) / RFU IL23R (11737362_x_at) / Fold change /veh IL23R (11737362_x_at) / RFU TMEM51 (11727254_a_at) / Fold change /veh TMEM51 (11727254_a_at) / RFU PIWIL2 (11732686_x_at) / Fold change /veh PIWIL2 (11732686_x_at) / RFU ORM1 (11744905_x_at) / Fold change /veh ORM1 (11744905_x_at) / RFU CCDC152 (11743942_at) / Fold change /veh CCDC152 (11743942_at) / RFU ECM1 (11717891_a_at) / Fold change /veh ECM1 (11717891_a_at) / RFU IL23R (11748794_a_at) / Fold change /veh IL23R (11748794_a_at) / RFU TNFAIP8L3 (11732012_x_at) / Fold change /veh TNFAIP8L3 (11732012_x_at) / RFU MBOAT4 (11741988_at) / Fold change /veh MBOAT4 (11741988_at) / RFU 11764193_at / Fold change /veh 11764193_at / RFU TMEM53 (11763286_at) / Fold change /veh TMEM53 (11763286_at) / RFU MAGEB2 (11727129_at) / Fold change /veh MAGEB2 (11727129_at) / RFU TMEM200A (11744735_a_at) / Fold change /veh TMEM200A (11744735_a_at) / RFU CCDC152 (11751479_a_at) / Fold change /veh CCDC152 (11751479_a_at) / RFU FAM211A (11726209_a_at) / Fold change /veh FAM211A (11726209_a_at) / RFU RGS16 (11746705_a_at) / Fold change /veh RGS16 (11746705_a_at) / RFU VCAN (11755009_s_at) / Fold change /veh VCAN (11755009_s_at) / RFU RHOB (11743442_s_at) / Fold change /veh RHOB (11743442_s_at) / RFU RGS16 (11720943_a_at) / Fold change /veh RGS16 (11720943_a_at) / RFU RGS16 (11720944_at) / Fold change /veh RGS16 (11720944_at) / RFU, VPS4B / Fold change vs veh, VPS4B / RFU, CREB1 / Fold change vs veh, CREB1 / RFU, DNAJC13 / Fold change vs veh, DNAJC13 / RFU, GNAQ / Fold change vs veh, GNAQ / RFU, CDK5R1 / Fold change vs veh, CDK5R1 / RFU, ZRANB3 / Fold change vs veh, ZRANB3 / RFU, CUL4A / Fold change vs veh, CUL4A / RFU, CCNY / Fold change vs veh, CCNY / RFU, UFL1 / Fold change vs veh, UFL1 / RFU, COG3 / Fold change vs veh, COG3 / RFU, DIAPH2 / Fold change vs veh, DIAPH2 / RFU, SKA2 / Fold change vs veh, SKA2 / RFU, AFF3 / Fold change vs veh, AFF3 / RFU, LMF1 / Fold change vs veh, LMF1 / RFU, IPO11 / Fold change vs veh, IPO11 / RFU, DFFB / Fold change vs veh, DFFB / RFU, FOXP1 / Fold change vs veh, FOXP1 / RFU, CARD8 / Fold change vs veh, CARD8 / RFU, STRN3 / Fold change vs veh, STRN3 / RFU, ADK / Fold change vs veh, ADK / RFU, RASSF2 / Fold change vs veh, RASSF2 / RFU, WIPF1 / Fold change vs veh, WIPF1 / RFU, LARP1B / Fold change vs veh, LARP1B / RFU, RASA1 / Fold change vs veh, RASA1 / RFU, RB1 / Fold change vs veh, RB1 / RFU, PPFIA1 / Fold change vs veh, PPFIA1 / RFU, MAT2A / Fold change vs veh, MAT2A / RFU, CCT5 / Fold change vs veh, CCT5 / RFU, WDR92 / Fold change vs veh, WDR92 / RFU, CUX1 / Fold change vs veh, CUX1 / RFU, TTC7A / Fold change vs veh, TTC7A / RFU, TMEM135 / Fold change vs veh, TMEM135 / RFU, DEPTOR / Fold change vs veh, DEPTOR / RFU, CPM / Fold change vs veh, CPM / RFU, DNAJB6 / Fold change vs veh, DNAJB6 / RFU, CACNA2D3 / Fold change vs veh, CACNA2D3 / RFU, DTX4 / Fold change vs veh, DTX4 / RFU, TFCP2 / Fold change vs veh, TFCP2 / RFU, GMCL1 /// GMCL1P1 / Fold change vs veh, GMCL1 /// GMCL1P1 / RFU, AEBP2 / Fold change vs veh, AEBP2 / RFU, SNHG1 /// SNORD22 /// SNORD25 /// SNORD26 /// SNORD27 /// SNORD28 /// SNORD29 /// SNORD31 / Fold change vs veh, SNHG1 /// SNORD22 /// SNORD25 /// SNORD26 /// SNORD27 /// SNORD28 /// SNORD29 /// SNORD31 / Fold change (Aza/veh), C12orf56 (ProbeSet 11735607_a_at) / Fold change (ACY-1035/veh), C12orf56 (ProbeSet 11735607_a_at) / Fold change (Aza/veh), FGFR1OP (ProbeSet 11751329_s_at) / Fold change (ACY-1035/veh), FGFR1OP (ProbeSet 11751329_s_at) / Fold change (Aza/veh), VPS36 (ProbeSet 11739960_a_at) / Fold change (ACY-1035/veh), VPS36 (ProbeSet 11739960_a_at) / RFU SYPL1 (11715823_x_at) / Fold change /veh SYPL1 (11715823_x_at) / RFU IGFBP7 (11715501_s_at) / Fold change /veh IGFBP7 (11715501_s_at) / RFU REEP3 (11722064_at) / Fold change /veh REEP3 (11722064_at) / RFU IGLL1 (11728026_x_at) / Fold change /veh IGLL1 (11728026_x_at): dose or concentration left out as unconfirmed
Settings: ProbeSet 11719185_x_at; LIST B

In the case of `Nc1ccc(-c2cccs2)cc1NC(=O)c1ccc2c(c1)cc(C1CC1)n2CCN1CCOCC1` [ACY-1035], the “RFU, N4BP2L2” value is reported as 104.68 RFU.
